EC50 data for 24 compounds are collected here from patent US20220162191A1, “SMALL MOLECULE MODULATORS OF IL-17” (LEO PHARMA A/S, priority 2019, published 2022).

pEC50: −log10 of the molar value. Bounds are passed on as bounds.

For the experiment, the target named is T1, human IL-17AA (Homo sapiens, UniProt Q16552).
T1 construct: host or cells: HEK (human embryonic kidney) cells
T1 sequence (Q16552 24-155) 1: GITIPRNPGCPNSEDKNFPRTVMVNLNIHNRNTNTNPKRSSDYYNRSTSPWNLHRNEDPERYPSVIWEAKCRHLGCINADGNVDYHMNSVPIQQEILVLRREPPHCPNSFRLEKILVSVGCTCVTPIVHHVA
T1 sequence (Q16552 24-155) 2: T1 sequence (Q16552 24-155) 1
Kind of experiment: IL-8 release assay in human epithelial keratinocytes adult (HEKa). Particulars: 3 ng/ml human IL-17AA + 10 ng/ml human TNFalpha, 68-72 h, IL-8 by HTRF, read-out: Rel EC50 L-8 release assay. The experiment is classed as cell-based. Put shortly: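 Adult human keratinocytes in Epilife with HKGS minus hydrocortisone, treated with compound then stimulated with final 3 ng/ml HEK-derived human IL-17AA plus 10 ng/ml TNF-alpha for 68–72 h at 37 °C; TNF-alpha alone defines 100% inhibition. Secreted IL-8 by HTRF; relative IC50 and Emax from four-parameter fits.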
For `CC(C)OC(=O)N[C@@H](Cc1cc(-c2ccc(=O)n(C(C)C)c2)ccc1Cl)C(=O)Nc1ccc(-c2nncn2C)cc1` [Example 99, isopropyl N-[(1S)-1-[[2-chloro-5-(1-isopropyl-6-oxo-3-pyridyl)phenyl]methyl]-2-[4-(4-methyl-1,2,4-triazol-3-yl)anilino]-2-oxo-ethyl]carbamate], the negative logarithm of the EC50 (pEC50) is less than 6.00.
As to `CC(C)COC(=O)N[C@@H](Cc1cc(-c2ccc(=O)n(C(C)C)c2)ccc1Cl)C(=O)Nc1ccc(-c2nncn2C)cc1` [Example 100, isobutyl N-[(1S)-1-[[2-chloro-5-(1-isopropyl-6-oxo-3-pyridyl)phenyl]methyl]-2-[4-(4-methyl-1,2,4-triazol-3-yl)anilino]-2-oxo-ethyl]carbamate], the negative-log EC50 (pEC50) was 6.00 to 7.00.
With `CC(C)n1cc(-c2ccc(Cl)c(CC(NC(=O)OC(C)(C)C)C(=O)Nc3ccc(-c4cncn4C)c(Cl)c3)c2)ccc1=O` (stereo not drawn) [Example 101, tert-butyl N-[1-[[2-chloro-5-(1-isopropyl-6-oxo-3-pyridyl)phenyl]methyl]-2-[3-chloro-4-(3-methylimidazol-4-yl)anilino]-2-oxo-ethyl]carbamate] the figure was less than 6.00; with `Cc1nocc1C(=O)NC(Cc1cc(-c2ccc(=O)n(C(C)C)c2)ccc1Cl)C(=O)Nc1ccc(-c2ccnn2C)c(Cl)c1` (stereo not drawn) [Example 102, N-[1-[[2-chloro-5-(1-isopropyl-6-oxo-3-pyridyl)phenyl]methyl]-2-[3-chloro-4-(2-methylpyrazol-3-yl)anilino]-2-oxo-ethyl]-3-methyl-isoxazole-4-carboxamide], 6.00 to 7.00; with `Cc1nocc1C(=O)NC(Cc1cc(-c2ccc(=O)n(C(C)C)c2)ccc1Cl)C(=O)Nc1ccc(-c2cncn2C)c(Cl)c1` (stereo not drawn) [Example 103, N-[1-[[2-chloro-5-(1-isopropyl-6-oxo-3-pyridyl)phenyl]methyl]-2-[3-chloro-4-(3-methylimidazol-4-yl)anilino]-2-oxo-ethyl]-3-methyl-isoxazole-4-carboxamide], greater than 7.00.
With `CC(C)n1cc(-c2ccc(Cl)c(C[C@H](NC(=O)C3(F)CC3)C(=O)Nc3ccc(-c4cncn4C)cc3)c2)ccc1=O` [Example 104, N-[(1S)-1-[[2-chloro-5-(1-isopropyl-6-oxo-3-pyridyl)phenyl]methyl]-2-[4-(3-methylimidazol-4-yl)anilino]-2-oxo-ethyl]-1-fluoro-cyclopropanecarboxamide] the figure was 6.00 to 7.00; with `CC(C)n1cc(-c2ccc(Cl)c(CC(NC(=O)OC3CCC3)C(=O)Nc3ccc(-c4nncn4C)cc3)c2)ccc1=O` (stereo not drawn) [Example 105, cyclobutyl N-[1-[[2-chloro-5-(1-isopropyl-6-oxo-3-pyridyl)phenyl]methyl]-2-[4-(4-methyl-1,2,4-triazol-3-yl)anilino]-2-oxo-ethyl]carbamate], 6.00 to 7.00.
To `CC(C)n1cc(-c2ccc(Cl)c(CC(NC(=O)OCC3(C)CC3)C(=O)Nc3ccc(-c4nncn4C)cc3)c2)ccc1=O` (stereo not drawn) [Example 106, (1-methylcyclopropyl)methyl N-[1-[[2-chloro-5-(1-isopropyl-6-oxo-3-pyridyl)phenyl]methyl]-2-[4-(4-methyl-1,2,4-triazol-3-yl)anilino]-2-oxo-ethyl]carbamate] belongs less than 6.00; to `Cc1nocc1C(=O)NC(Cc1cc(-c2cccc(C(=O)N(C)C3CC3)c2)ccc1Cl)C(=O)Nc1ccc(-c2nncn2C)cc1` (stereo not drawn) [Example 107, N-[1-[[2-chloro-5-[3-[cyclopropyl(methyl)carbamoyl]phenyl]phenyl]methyl]-2-[4-(4-methyl-1,2,4-triazol-3-yl)anilino]-2-oxo-ethyl]-3-methyl-isoxazole-4-carboxamide], 6.00 to 7.00; to `CCc1cccc(-c2ccc(Cl)c(CC(NC(=O)c3ccnn3C)C(=O)Nc3ccc(-c4nncn4C)cc3)c2)c1` (stereo not drawn) [Example 108, N-[1-[[2-chloro-5-(3-ethylphenyl)phenyl]methyl]-2-[4-(4-methyl-1,2,4-triazol-3-yl)anilino]-2-oxo-ethyl]-2-methyl-pyrazole-3-carboxamide], 6.00 to 7.00.
`Cn1cnnc1-c1ccc(NC(=O)C(Cc2cc(-c3cccc(C(C)(C)O)c3)ccc2Cl)NC(=O)c2ccnn2C)cc1` (stereo not drawn) [Example 109, N-[1-[[2-chloro-5-[3-(1-hydroxy-1-methyl-ethyl)phenyl]phenyl]methyl]-2-[4-(4-methyl-1,2,4-triazol-3-yl)anilino]-2-oxo-ethyl]-2-methyl-pyrazole-3-carboxamide]: the pEC50 was 6.00 to 7.00.
To `CCOc1cccc(-c2ccc(Cl)c(CC(NC(=O)c3ccnn3C)C(=O)Nc3ccc(-c4nncn4C)cc3)c2)c1` (stereo not drawn) [Example 110, N-[1-[[2-chloro-5-(3-ethoxyphenyl)phenyl]methyl]-2-[4-(4-methyl-1,2,4-triazol-3-yl)anilino]-2-oxo-ethyl]-2-methyl-pyrazole-3-carboxamide] belongs 6.00 to 7.00; to `Cn1cnnc1-c1ccc(NC(=O)C(Cc2cc(-c3cccc(OC(F)(F)F)c3)ccc2Cl)NC(=O)c2ccnn2C)cc1` (stereo not drawn) [Example 111, N-[1-[[2-chloro-5-[3-(trifluoromethoxy)phenyl]phenyl]methyl]-2-[4-(4-methyl-1,2,4-triazol-3-yl)anilino]-2-oxo-ethyl]-2-methyl-pyrazole-3-carboxamide], 6.00 to 7.00.
With `Cn1cnnc1-c1ccc(NC(=O)C(Cc2cc(-c3cccc(OC(F)F)c3)ccc2Cl)NC(=O)c2ccnn2C)cc1` (stereo not drawn) [Example 112, N-[1-[[2-chloro-5-[3-(difluoromethoxy)phenyl]phenyl]methyl]-2-[4-(4-methyl-1,2,4-triazol-3-yl)anilino]-2-oxo-ethyl]-2-methyl-pyrazole-3-carboxamide] the figure was 6.00 to 7.00; with `Cc1nocc1C(=O)NC(Cc1cc(-c2cccc(C(=O)N3CCC3)c2)ccc1Cl)C(=O)Nc1ccc(-c2nncn2C)cc1` (stereo not drawn) [Example 113, N-[1-[[5-[3-(azetidine-1-carbonyl)phenyl]-2-chloro-phenyl]methyl]-2-[4-(4-methyl-1,2,4-triazol-3-yl)anilino]-2-oxo-ethyl]-3-methyl-isoxazole-4-carboxamide], less than 6.00.
To `Cc1nccn1-c1ccc(NC(=O)[C@H](Cc2cc(-c3ccc(=O)n(C(C)C)c3)ccc2Cl)NC(=O)C2(F)CC2)cc1` [Example 114, N-[(1S)-1-[[2-chloro-5-(1-isopropyl-6-oxo-3-pyridyl)phenyl]methyl]-2-[4-(2-methylimidazol-1-yl)anilino]-2-oxo-ethyl]-1-fluoro-cyclopropanecarboxamide] belongs 6.00 to 7.00; to `CC(C)CC(=O)N[C@@H](Cc1cc(-c2ccc(=O)n(C(C)C)c2)ccc1Cl)C(=O)Nc1ccc(-c2nncn2C)cc1` [Example 115, N-[(1S)-1-[[2-chloro-5-(1-isopropyl-6-oxo-3-pyridyl)phenyl]methyl]-2-[4-(4-methyl-1,2,4-triazol-3-yl)anilino]-2-oxo-ethyl]-3-methyl-butanamide], less than 6.00.
As to `CC(C)n1cc(-c2ccc(Cl)c(C[C@H](NC(=O)CC3CC3)C(=O)Nc3ccc(-c4nncn4C)cc3)c2)ccc1=O` [Example 116, (2S)-3-[2-chloro-5-(1-isopropyl-6-oxo-3-pyridyl)phenyl]-2-[(2-cyclopropylacetyl)amino]-N-[4-(4-methyl-1,2,4-triazol-3-yl)phenyl]propanamide], the pEC50 is less than 6.00.
For the compound `CC(C)n1cc(-c2ccc(Cl)c(C[C@H](NC(=O)C3(C(F)(F)F)CC3)C(=O)Nc3ccc(-c4nncn4C)cc3)c2)ccc1=O` [Example 117, N-[(1S)-1-[[2-chloro-5-(1-isopropyl-6-oxo-3-pyridyl)phenyl]methyl]-2-[4-(4-methyl-1,2,4-triazol-3-yl)anilino]-2-oxo-ethyl]-1-(trifluoromethyl) cyclopropanecarboxamide], the negative-log EC50 (pEC50) was less than 6.00.
With `Cc1cnn(C)c1-c1ccc(NC(=O)[C@H](Cc2cc(-c3ccc(=O)n(C(C)C)c3)ccc2Cl)NC(=O)c2conc2C)cc1` [Example 118, N-[(1S)-1-[[2-chloro-5-(1-isopropyl-6-oxo-3-pyridyl)phenyl]methyl]-2-[4-(2,4-dimethylpyrazol-3-yl)anilino]-2-oxo-ethyl]-3-methyl-isoxazole-4-carboxamide] the figure was greater than 7.00; with `Cc1cnn(C)c1-c1ccc(NC(=O)[C@H](Cc2cc(-c3ccc(=O)n(C(C)C)c3)ccc2Cl)NC(=O)C2(F)CC2)cc1` [Example 119, N-[(1S)-1-[[2-chloro-5-(1-isopropyl-6-oxo-3-pyridyl)phenyl]methyl]-2-[4-(2,4-dimethylpyrazol-3-yl)anilino]-2-oxo-ethyl]-1-fluoro-cyclopropanecarboxamide], 6.00 to 7.00.
To `Cc1nocc1C(=O)NC(Cc1cc(-c2cccc(C(=O)N3CC(F)C3)c2)ccc1Cl)C(=O)Nc1ccc(-c2nncn2C)cc1` (stereo not drawn) [Example 120, N-[1-[[2-chloro-5-[3-(3-fluoroazetidine-1-carbonyl)phenyl]phenyl]methyl]-2-[4-(4-methyl-1,2,4-triazol-3-yl)anilino]-2-oxo-ethyl]-3-methyl-isoxazole-4-carboxamide] belongs 6.00 to 7.00.
To `CC(C)n1cc(-c2ccc(Cl)c(CC(NC(=O)c3ccnn3C)C(=O)Nc3ccc(-c4c[nH]nc4C(F)(F)F)cc3)c2)ccc1=O` (stereo not drawn) [Example 121, N-[1-[[2-chloro-5-(1-isopropyl-6-oxo-3-pyridyl)phenyl]methyl]-2-oxo-2-[4-[3-(trifluoromethyl)-1H-pyrazol-4-yl]anilino]ethyl]-2-methyl-pyrazole-3-carboxamide] belongs 6.00 to 7.00; to `CC(C)Oc1cccc(-c2ccc(Cl)c(CC(NC(=O)c3ccnn3C)C(=O)Nc3ccc(-c4nncn4C)cc3)c2)c1` (stereo not drawn) [Example 122, N-[1-[[2-chloro-5-(3-isopropoxyphenyl)phenyl]methyl]-2-[4-(4-methyl-1,2,4-triazol-3-yl)anilino]-2-oxo-ethyl]-2-methyl-pyrazole-3-carboxamide], 6.00 to 7.00.
